Assay results taken from US12295937B2, “Psychoactive medicines and their use for treating psychiatric and neurological conditions and disorders” (Transcend Therapeutics, Inc., priority 2021, dated 2025).

Legend:
[1] = IMPACT-1 Part A open-label study in PTSD; type: in vivo, human; design: Anxiety Sub-Scale of MADRS, score reduction / Participants with absence of Reduced Sleep (MADRS): concentration or dose not given beside the values
Experimental: For each participant in Parts A and B, the study consists of: • Screening Period (Day −28 to Day −4): Informed consent, eligibility assessment, and enrolment of eligible participants. • Baseline/Preparatory Session (Day −3 to Day −1): Baseline assessments, confirmation of eligibility, and a preparatory psychoeducation session leading to enrolment confirmation. • Treatment Period (Day 1 to Day 24): Four weekly dose sessions, with associated remote sessions. The dose sessions last at least 8 hours, or until all effects (physical and psychological) have resolved (whichever is longer). Each dose session is followed by a safety phone call 1 day after dosing and efficacy assessments 2 days after dosing. Each dosing period is video recorded for quality and training purposes. The videos may be reviewed to ensure the Mentor is adhering to the Mentor training. • Follow-Up Period (Day 29 to Day 64): Follow-Up visits for safety and efficacy occur at 1, 2, 3 and 6 weeks post-final study drug administration. In addition, there are Mentor-Led Reflection Sessions 1, 2 and 3 weeks post-final study drug administration. Participants are contacted via telephone on Day 57 (±2 days) for Follow-Up. • Discontinuations: Participants who discontinue prematurely are asked to return for an extra visit to duplicate the 6-week end-of-study (EOS) visit.
Each dose was given as an initial dose, followed by a second dose 90 minutes later. During the dosing session, participants were accompanied by a trained Mentor who provided non-directive support. After the 4-week treatment period, participants attended follow-up visits at 1, 2, 3, and 6 weeks following the last dose. Safety was assessed via standard measures including adverse events. PTSD symptoms were assessed via Clinician-Administered PTSD Scale for DSM-5 (CAPS-5), depressive symptoms were assessed via Montgomery-Åsberg Depression Rating Scale (MADRS). Anti-anxiety efficacy was evaluated using the Anxiety Sub-Scale of MADRS, namely, questions (Items 3, 4, 5, 6) that address four anxiety items (inner tension, reduced sleep, reduced appetite, concentration difficulties) Changes from baseline were analyzed using a paired t-test p-values.
Methods: The IMPACT-1 study is a multi-center, two-part clinical trial. Part A has completed and was an open-label evaluation involving 14 participants with PTSD. Eligible participants are adults with severe PTSD (CAPS-5≥35) who had failed at least 1 prior treatment (pharmacotherapy and/or psychotherapy) for PTSD. […] Throughout each dosing session, participants were provided non-directive psychological support by a trained mental health practitioner. Following the 4-week treatment period, participants were followed for an additional 6 weeks to evaluate the durability of the therapeutic effect. PTSD symptom improvement was evaluated on the CAPS-5. Functioning was assessed via the 3 domains (school/work, family life, social life) of the Sheehan Disability Scale (SDS). Global improvement was measured by the CGI-I. Safety was assessed by monitoring adverse events, vital signs, and C-SSRS.
Following the 4-week treatment period, participants were followed for an additional 6 weeks to evaluate the durability of the therapeutic effect. Sleep-related improvements were evaluated on the CAPS-5 (including distressing dreams [item B2; scores range 0 to 4] and sleep disturbances [item E6; scores range 0 to 4]), the Pittsburgh Sleep Quality Index (PSQI; total scores range 0 to 21) and subscales, and the reduced sleep item of the Montgomery-Åsberg Depression Rating Scale (MADRS; scores range 0 to 6).

[2] = molecular target: DAT (Rattus norvegicus, UniProt P23977); test: [3H]DA release from rat brain synaptosomes; type: biochemical; design: from tissue; synaptosomes for uptake and release; conditions: rat brain synaptosomes; read-out: Neurotransmitter release: EC50
Experimental: Test compounds and synaptosomes were prepared as described for uptake inhibition assays. Synaptosomes treated with [^3H]5-HT, [^3H]DA or [^3H]NE were loaded onto filter chambers containing GF/C filters and placed in a superfusion system. Oxygenated Krebs buffer was perfused through the chambers at a rate of 1.5 mL/minute at 35° C. using either an 8-channel or a 12-channel peristaltic pump. Trapped air bubbles were removed from the filters prior to collecting fractions to ensure an even flow over the synaptosomal bed. After a superfusion period of 45 minutes, 2 basal fractions were collected followed by 6 fractions following the addition of the test drug. […] Scintillation cocktail was added, and the filters counted to determine residual radioactivity. Drug-evoked release of neurotransmitter was calculated by subtracting the average of the two basal fractions (collected prior to the drug addition), from the four fractions collected in the presence of drug. The drug-evoked release was then expressed as a percentage of the basal release. Potassium-evoked release was calculated by subtracting the average of two fractions collected prior to the addition of high KCl buffer from that in the two fractions following addition of high KCl buffer. Potassium-stimulated release was calculated as a percentage of basal release. […]

[3] = molecular target: NET (Rattus norvegicus, UniProt Q63380); test: [3H]NE uptake inhibition in rat brain synaptosomes; conditions: read-out: Reuptake inhibition: IC50; rat brain synaptosomes
Sequence of NET (Q63380 1-617): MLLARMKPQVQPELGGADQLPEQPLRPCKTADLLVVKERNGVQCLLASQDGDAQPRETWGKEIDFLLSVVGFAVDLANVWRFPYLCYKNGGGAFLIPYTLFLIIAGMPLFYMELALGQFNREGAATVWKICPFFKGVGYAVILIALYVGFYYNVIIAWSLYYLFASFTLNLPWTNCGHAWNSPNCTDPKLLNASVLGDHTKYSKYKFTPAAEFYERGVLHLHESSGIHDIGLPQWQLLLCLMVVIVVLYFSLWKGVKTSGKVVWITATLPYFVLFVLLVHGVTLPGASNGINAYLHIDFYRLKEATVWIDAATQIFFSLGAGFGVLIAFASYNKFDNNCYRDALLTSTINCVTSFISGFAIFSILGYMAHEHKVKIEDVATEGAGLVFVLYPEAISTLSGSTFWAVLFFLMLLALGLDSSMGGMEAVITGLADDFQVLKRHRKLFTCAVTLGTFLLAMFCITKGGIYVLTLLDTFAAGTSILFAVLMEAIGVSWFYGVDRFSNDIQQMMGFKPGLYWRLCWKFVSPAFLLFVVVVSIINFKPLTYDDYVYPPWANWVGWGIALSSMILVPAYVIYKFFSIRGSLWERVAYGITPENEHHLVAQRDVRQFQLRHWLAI

Sequence of DAT (P23977 whole entry, the tested form may be a part): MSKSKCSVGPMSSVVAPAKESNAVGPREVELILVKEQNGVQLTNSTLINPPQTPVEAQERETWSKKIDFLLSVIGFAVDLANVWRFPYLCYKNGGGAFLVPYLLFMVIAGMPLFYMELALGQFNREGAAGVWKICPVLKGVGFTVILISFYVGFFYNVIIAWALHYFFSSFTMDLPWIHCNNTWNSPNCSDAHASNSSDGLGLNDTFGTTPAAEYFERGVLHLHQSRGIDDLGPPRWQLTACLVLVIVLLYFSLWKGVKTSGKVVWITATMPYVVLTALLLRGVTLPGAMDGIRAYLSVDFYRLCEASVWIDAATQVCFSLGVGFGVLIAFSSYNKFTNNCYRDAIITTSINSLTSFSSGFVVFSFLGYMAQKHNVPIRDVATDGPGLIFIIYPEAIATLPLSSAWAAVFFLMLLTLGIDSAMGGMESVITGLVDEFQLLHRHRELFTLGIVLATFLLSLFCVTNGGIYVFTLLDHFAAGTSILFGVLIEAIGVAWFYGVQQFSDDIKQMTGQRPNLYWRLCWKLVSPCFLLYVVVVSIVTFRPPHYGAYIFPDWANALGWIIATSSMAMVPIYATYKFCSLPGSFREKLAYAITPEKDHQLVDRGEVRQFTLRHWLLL

## CNC(C)C(=O)c1ccc2c(c1)OCO2 (stereo not shown) [Methylone, 3,4-methylenedioxy-N-methylcathinone]
[1]; 6 weeks after the last dose
  CAPS-5 score decrease: 36.2 points
  MADRS score decrease: 21.4 points
[1]; Day 3
  Anxiety Sub-Scale of MADRS, score reduction: 20%
  CAPS-5 score decrease: 8.4 points
  MADRS score decrease: 8.2 points
[1]; Day 10
  Anxiety Sub-Scale of MADRS, score reduction: 43%
  CAPS-5 score decrease: 23.3 points
  MADRS score decrease: 16.2 points
  Participants achieving remission (CAPS-5): ~40%
[1]; Day 10, two days after the 2nd dose
  Participants much or very much improved (CGI-I): ~70%
[1]; Day 17
  Anxiety Sub-Scale of MADRS, score reduction: 50%
[1]; Day 24
  Anxiety Sub-Scale of MADRS, score reduction: 57%
[1]; Day 29
  Anxiety Sub-Scale of MADRS, score reduction: 56%
[1]; Day 36
  Anxiety Sub-Scale of MADRS, score reduction: 66%
[1]; Day 43
  Anxiety Sub-Scale of MADRS, score reduction: 64%
[1]; Day 64
  Anxiety Sub-Scale of MADRS, score reduction: 66%
  SDS score, Family Life: 3.1 (3.45)
  SDS score, Mean Overall: 3.1 (3.12)
  SDS score, Social Life: 3.2 (3.39)
  SDS score, Work/School: 3.3 (3.78)
[1]; N = 14
  TEAE: Bruxism: 14.3%
  TEAE: Decreased appetite: 28.6%
  TEAE: Dizziness: 14.3%
  TEAE: Fatigue: 21.4%
  TEAE: Headache: 42.9%
  TEAE: Hyperhidrosis: 14.3%
  TEAE: Influenza-like illness: 14.3%
  TEAE: Insomnia: 14.3%
  TEAE: Nasopharyngitis: 14.3%
  TEAE: Non-cardiac chest pain: 21.4%
[1]; Part A
  Drug-related serious adverse events: No drug-related SAEs occurred
[1]; Safety Population N = 14
  TEAE: Any AE: 78.6%
[1]; after the first dose
  CAPS-5 mean change from baseline: −8.4 points
  SDS mean change from baseline: −1.53
[1]; after treatment
  Participants with absence of Distressing Dreams: 77%
  Participants with absence of Reduced Sleep (MADRS): 62%
  Participants with absence of Sleep Disturbances: 62%
[1]; after treatment, baseline 2.2
  CAPS-5 Distressing Dreams (item B2) mean score: 0.38
[1]; after treatment, baseline 3.3
  CAPS-5 Sleep Disturbances (item E6) mean score: 0.92
[1]; after treatment, baseline 4.3
  MADRS Reduced Sleep mean score: 1.08
[1]; end of study
  PSQI total mean score: 9.4
  Participants having mild or no impairment (SDS): > 50%
[1]; end of study (6 weeks after the last dose), baseline 13.5
  PSQI total score improvement: −4.0 points
[1]; end of study visit (6 weeks after the last dose)
  CAPS-5 mean change from baseline: −36.2 points
[1]; end of the 4-week treatment period, baseline 2.6
  Change in number of days lost: -2.0 days
[1]; end of the 4-week treatment period, baseline 4.7
  Change in number of days underproductive: -3.3 days
[1]; end of the study
  Participants achieving remission (CAPS-5): 61.5%
  Participants much or very much improved (CGI-I): all participants
[1]; one subject, knees, before 7-8 and 8-9 out of 10
  Patient-reported chronic pain after methylone: 2-3 out of 10
[1]; through the 6-week follow-up period
  SDS mean change from baseline: −4.26
[2]
  EC50: 4790 nM
[3]
  IC50: 130 nM
